Laboratory results from article PMC11718441, “Bis-3-chloropiperidines: a novel motif for anthelmintic drug design” (RSC Advances, 2025).
Values after ≈ are worked out from the molar mass of the structure shown. “Also recorded” adds a separate entry of the source. Read-outs that look alike come from different tables or passages of the source.

What was measured:
[1] = test system: Escherichia coli ATCC35218; test: microbe, parasite or virus in culture; format: cell-based; conditions: ATCC35218, read-out: MIC Ec
Description: (§1) The minimum inhibitory concentration (MIC) of the synthesized compounds was initially determined against three microbial indicator strains (Escherichia coli ATCC35218, […] ATCC33592, Septoria tritici MUCL45408). […]
(§2) 2. Microbial and parasitological studies
(§3) The minimum inhibitory concentration (MIC) of the synthesized compounds was determined against three microbial indicator strains (E. coli ATCC35218, S. aureus ATCC33592 and S. tritici MUCL45408) as previously described.1,2 All samples were dissolved in DMSO and tested in triplicate. Briefly, a pre-culture of E. coli and S. aureus was prepared by incubating the strains in cation adjusted Mueller Hinton 2 broth (Becton Dickinson, Sparks, NV, USA) at 37°C and 180 rpm overnight. The cell density of adjusted to 5 × 10^5 cells/mL before assays were incubated at 37 °C, 180 rpm and 85% rH. Three distinct dilution series of standard antibiotics (gentamicin, rifampicin, […]
(§4) medium without test compound or positive control was used as negative control.
(§5) Medium background was averaged from 5 replicates. The turbidity of each well was […]

S. aureus ATCC33592 = test: microbe, parasite or virus in culture; format: cell-based; conditions: Staphylococcus aureus, ATCC33592, read-out: MIC Sa
Description: as §1, §2, §3, §4, §5

[2] = test system: Septoria tritici MUCL45408; test: Minimum inhibitory concentration (MIC), S. tritici (ATP quantification); format: cell-based; conditions: Zymoseptoria tritici, MUCL45408, 96 h, read-out: MIC St
Description: as §1, §2
The minimum inhibitory concentration (MIC) of the synthesized compounds was determined against three microbial indicator strains (E. coli ATCC35218, S. aureus ATCC33592 and S. tritici MUCL45408) as previously described.1,2 All samples were dissolved in DMSO and tested in triplicate. Briefly, a pre-culture of E. coli and S. aureus was prepared by incubating the strains in cation adjusted Mueller Hinton 2 broth (Becton Dickinson, Sparks, NV, USA) at 37°C and 180 rpm overnight. The cell density of adjusted to 5 × 10^5 cells/mL before assays were incubated at 37 °C, 180 rpm and 85% rH. Three distinct dilution series of standard antibiotics (gentamicin, rifampicin, and tetracycline) were used as positive controls on each assay plate. Inoculated medium without test compound or positive control was used as negative control.
Medium background was averaged from 5 replicates. The turbidity of each well was measured with a microplate spectrophotometer at 600 nm (LUMIstar® Omega, BMG Labtech) and growth inhibition was calculated relative to the absorption of the controls. For S. tritici MUCL45408 inoculated at a density of 1 × 10^5 cells/mL in potato […]
dextrose medium. Septoria assay plates were incubated for 4 days at 25 °C, 180 rpm and 85% rH. Tebuconazole, amphotericin B, and nystatin were used as positive controls. Cell viability was evaluated via ATP quantification (BacTiter-Glo™, Promega GmbH, Walldorf, Germany) according to the manufacturer’s instructions. […]

[3] = test system: C. elegans strains N2 and DC19; test: MMIC against C. elegans, strains N2 and DC19 reported together or strain not stated; format: cell-based; conditions: Caenorhabditis elegans, 48 h
Description: (§6) The cuticle of C. elegans strain DC19 is known to be more permeable for small molecules compared to the wildtype N2.[30] DC19 is thereby considered an informative drug-sensitive test organism. In our assays, we determined the minimum mobility inhibitory concentration (MMIC) as a proxy for anthelmintic activity. […] In contrast, MMICs of some small molecule anthelmintics such as albendazole, mebendazole or PF-1022A were lower for DC19 (Fig. S1 ^†). […]
(§7) 2.2 In vitro tests against Caenorhabditis Elegans
(§8) The minimal motility inhibitory concentration (MMIC) of compounds 1-22 against C. elegans was determined as described before.3 Both strains, C. elegans N2 and DC19 were treated identically. Briefly, pre-cultures of C.elegans were kept on NGM agar plates infused with auxotrophic E.coli OP50 as food source.4 After 4 days the plates contained sufficient gravid worms, respectively. Worms were washed from the plates with M9 buffer using wide bore pipette tips. Egg preparation was carried out by treating the harvested worms with an alkaline hypochlorite solution (5 M NaOH + 5 % NaOCl 1:2) in polypropylene tubes. Larvae and adult […]
(§9) We carried out 3 washing steps (M9 buffer) to remove carry-over hypochlorite solution. Subsequently, the eggs were incubated overnight in NGM broth on a rotator to yield synchronized hatched L1/L2 larvae. The larvae solution was adjusted to 100 worms/mL and supplemented with cholesterol (5 µg/mL), carbenicillin (25 µg/mL) and E.coli OP50 (0.5%). This assay solution was distributed into 96 well plates and incubated with a dilution series of compounds 1-22 (64-0.5 µg/mL). An additional eight-point dilution series of ivermecin (40 – 0.3 ng/mL) was used as positive control on each assay plate. Solvent background was controlled by supplementation of pure DMSO without any compound. Assays were incubated for 2 days at room temperature. Finally, a cell imaging multimode reader (Cytation™ 5) was used to record short videos (1.5 seconds) of each individual test well. The videos were used to evaluate the worm motility.

MDCK II cells = test: In vitro cytotoxicity, CellTiter-Glo, MDCK II cells; conditions: 100 μM; for MDCKII cytotoxicity: 48 h, cell viability less than 80% relative to DMSO control = cytotoxic
in vitro = conditions: dog
Schistosoma mansoni = test: In vitro tests against Schistosoma mansoni (vitality parameters of adult worm pairs); format: cell-based; conditions: for lethal effects / sucker detachment: 20 μM; for lethal effects: after seven days; for sucker detachment: after three days; for Effect on S. mansoni: 10 and 20 μM, up to 7 days, Det: detachment of suckers, Mot: motility reduction, Sep: pair separation; for activity against S. mansoni (100% effect strength in one parameter within 7 days = active): 10 or 20 μM
Description: Subsequently, we tested whether compounds with nematocidal activity display a broader activity also against parasitic flatworms. To this end, in vitro tests against the blood fluke S. mansoni were conducted (Fig. 4). The worms were incubated in presence of 10 and 20 μM of compounds 1–22 and phenotypic vitality parameters (separation of worm pairs, detachment of suckers from the bottom of the well and weakening of body movements) were assessed as previously described.[31] Compounds reaching 100% effect strength in one of the parameters within 7 days were considered active. Reduction of motility is considered most relevant for antischistosomal drug candidates.[32] In addition, loss of sucker activity would make parasites drifting off from their host habitat (mesenteric veins) and with pair separation, the production of pathology-causing eggs eventually ceases.[33] […] For some molecular targets e.g. glutamate and GABA chloride channels (ivermecin, abamectin) and β-tubulin (albendazole, mebendazole) the C. elegans assays results were transferable to Schistosoma, while for others e.g. acetylcholin mimetic (levamisole) the C. elegans MMIC was not predicative (Fig. S1 ^†).
2.2 Parasitological studies
Animal experiments were performed in accordance with Directive 2010/63/EU on the protection of animals used for scientific purposes and the German Animal Welfare Act. The experiments were approved by the Regional Council (Regierungspraesidium) Giessen (V54 – […]
A Liberian strain of S. mansoni was maintained in the freshwater snail Biomphalaria glabrata as intermediate host and Syrian hamsters (Mesocricetus auratus) as final host (Janvier Labs, France).5,6 Hamsters were infected at 8 weeks of age with 1,750 cercariae by using the paddling method.7 Adult worms were collected at 46 days p.i. by hepatoportal perfusion and cultured in M199 medium (Sigma-Aldrich, Germany) supplemented with 10% Newborn Calf Serum (NCS, Sigma-Aldrich), 1% 1 M HEPES (ThermoFisher Scientific, USA) and 1% ABAM solution (10,000 units/ml penicillin, 10 mg/ml streptomycin and […] amphotericin B; Sigma-Aldrich, Germany) at 37 °C, 5% CO2 and humidified atmosphere.
2.2.3. In vitro tests against Schistosoma mansoni
Test compounds were added at 10 µM or 20 µM in supplemented M199 medium to schistosomes (5 worm pairs per replicate) followed by a 7 d in vitro culture. Worms receiving the solvent DMSO at equal dilution served as negative control. The following vitality parameters were assessed every 24 h by bright field microscopy using a Leica DM IL inverted microscope and x2.5 objective lens: separation of worm pairs into male and female worms; detachment of suckers from the bottom; and weakening of body movements. Worm motility was scored as described previously, 8 with the scores 3 (normal motility), 2 (reduced motility), 1 (minimal and sporadic movements), 0 (no movements within 20 sec; dead worms). An average score of all worms per well was calculated to obtain a motility score. An average motility score of 0, separation of all pairs or detachment of all worms per well was considered

C. elegans DC19 = test: whole plant or invertebrate; format: cell-based, Caenorhabditis elegans; conditions: Caenorhabditis elegans, 48 h, read-out: MMIC DC19
Description: as §6, §7, §8, §9

C. elegans N2 = test: whole plant or invertebrate; format: cell-based, Caenorhabditis elegans; conditions: Caenorhabditis elegans, 48 h, read-out: MMIC N2
Description: as §6, §7, §8, §9

[4] = C. elegans, read-out: MMIC N2 and DC19

Structure (SMILES)	MIC [1] [µg/mL]	MIC (S. aureus ATCC33592) [µg/mL]	MIC [2] [µg/mL]	minimal effective concentration [3, 4] [µg/mL]	cytotoxicity against MDCK II (in words) (MDCK II cells)	MDCKII cytotoxicity (MDCK II cells)	CC50 (in vitro) [µM]	lethal effects (Schistosoma mansoni)	sucker detachment (Schistosoma mansoni)	Effect on S. mansoni (Schistosoma mansoni)	activity against S. mansoni (100% effect strength in one parameter within 7 days = active) (Schistosoma mansoni)	minimal effective concentration (C. elegans DC19) [µg/mL]	minimal effective concentration (C. elegans N2) [µg/mL]	sucker detachment of Schistosoma worm pairs (Schistosoma mansoni; 10 μM)	motility score (Schistosoma mansoni; score 3 normal motility to 0 dead, paragraph on 20 μM)	minimal effective concentration ([3]; read-out: MMIC N2 and DC19, C. elegans) [µg/mL]	separation of worm pairs (Schistosoma mansoni; 10 μM, after 3 days)
COc1cc(CN2CC(Cl)CC(C)(C)C2)cc(CN2CC(Cl)CC(C)(C)C2)c1 (stereo not drawn) [Compound 2]	> 64	> 64	64 (≈ 150 µM)	< 20	did not exhibit cytotoxic properties	− (“−” (not toxic))	83	lethal effect	sucker detachment already after three days	Det, Sep, Mot, Lethal	showed an effect on S. mansoni; also recorded: active at 20 μM						
COC(=O)c1cc(CN2CC(Cl)CC(C)(C)C2)cc(CN2CC(Cl)CC(C)(C)C2)c1 (stereo not drawn) [Compound 4]	> 64	> 64	> 64	< 20		− (“−” (not toxic))	205				no activity	16	16				
CC1(C)CC(Cl)CN(Cc2cc(CN3CC(Cl)CC(C)(C)C3)cc([N+](=O)[O-])c2)C1 (stereo not drawn) [Compound 5]	> 64	> 64	> 64	< 20		− (“−” (not toxic))	> 1000			Det, Sep, Lethal	showed an effect on S. mansoni; also recorded: active at 10 μM	16	16	full sucker detachment	1–1.2		
COc1ccc(CN2CC(Cl)CC(C)(C)C2)c(CN2CC(Cl)CC(C)(C)C2)c1 (stereo not drawn) [Compound 9]	> 64	> 64	> 64		cytotoxic	+ (“+” (toxic))	70	lethal effects	sucker detachment already after three days	Det, Sep, Lethal	Schistosoma-specific; also recorded: active at 20 μM	64	> 64			64	separation of all worm pairs
CC1(C)CC(Cl)CN(Cc2cc(CN3CC(Cl)CC(C)(C)C3)cc(CN3CC(Cl)CC(C)(C)C3)c2)C1 (stereo not drawn) [Compound 21]	> 64	> 64	> 64	< 20	did not exhibit cytotoxic properties	− (“−” (not toxic))	> 1000				did not affect Schistosoma						
